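In this assay, cells in 96-well plates receive the compound at five concentrations for 48 hours. Endpoints are linearly interpolated between the surrounding concentrations. GI50 = concentration required for 50% inhibition of growth.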 Active and inactive are the calls of the source. Cut-off read from the data, not from the text of the source: active = GI50 up to about 1.1 µM and inactive = higher.
Tests used:
Test in all cases: NCI anticancer screen, dose series, 48 h
ACHN = tested on: ACHN
COLO 205 = tested on: COLO 205
DMS-273 = tested on: DMS-273
EKVX = tested on: EKVX
HL-60 = tested on: HL-60
HT-29 = tested on: HT-29
IGROV-1 = tested on: IGROV-1
M19-MEL = tested on: M19-MEL
NCI-H226 = tested on: NCI-H226
RPMI-8226 = tested on: RPMI-8226
RXF 393 = tested on: RXF 393
SF-268 = tested on: SF-268
SNB-75 = tested on: SNB-75
SR = tested on: SR
SW-620 = tested on: SW-620
TK-10 = tested on: TK-10
NCI/ADR-RES = tested on: NCI/ADR-RES
MDA-MB-231 = tested on: MDA-MB-231
MDA-MB-435 = tested on: MDA-MB-435
T47D = tested on: T47D

Row | SMILES | GI50 (ACHN) | GI50 (COLO 205) | GI50 (DMS-273) | GI50 (EKVX) | GI50 (HL-60) | GI50 (HT-29) | GI50 (IGROV-1) | GI50 (M19-MEL) | GI50 (NCI-H226) | GI50 (RPMI-8226) | GI50 (RXF 393) | GI50 (SF-268) | GI50 (SNB-75) | GI50 (SR) | GI50 (SW-620) | GI50 (TK-10) | GI50 (NCI/ADR-RES) | GI50 (MDA-MB-231) | GI50 (MDA-MB-435) | GI50 (T47D)
1 | Cn1c(=O)n(C2(C)C[Se]C2)c2ccccc21 | > 100 µM (inactive) | > 100 µM (inactive) | > 100 µM (inactive) | > 100 µM (inactive) | > 100 µM (inactive) | > 100 µM (inactive) | > 100 µM (inactive) | > 100 µM (inactive) | > 100 µM (inactive) | > 100 µM (inactive) | > 100 µM (inactive) | > 100 µM (inactive) | > 100 µM (inactive) | > 100 µM (inactive) | > 100 µM (inactive) | > 100 µM (inactive) | – | – | – | –
2 | CN(C)CCNC(=O)c1cccc2ccc(-c3ccc(Br)cc3)nc12 | – | 0.944 µM (active) | 1.16 µM (inactive) | 2.61 µM (inactive) | 1.23 µM (inactive) | 1.61 µM (inactive) | 2.96 µM (inactive) | 2.24 µM (inactive) | 1.89 µM (inactive) | 1.29 µM (inactive) | 3.96 µM (inactive) | 3.92 µM (inactive) | 3.27 µM (inactive) | – | 1.17 µM (inactive) | – | 1.8 µM (inactive) | – | – | –
3 | O=C(NO)C(=O)Nc1ccc(Cl)cc1[N+](=O)[O-] | > 100 µM (inactive) | > 100 µM (inactive) | > 100 µM (inactive) | 33.9 µM (inactive) | > 100 µM (inactive) | > 100 µM (inactive) | > 100 µM (inactive) | > 100 µM (inactive) | > 100 µM (inactive) | > 100 µM (inactive) | > 100 µM (inactive) | > 100 µM (inactive) | > 100 µM (inactive) | > 100 µM (inactive) | > 100 µM (inactive) | > 100 µM (inactive) | – | – | – | –
4 | C=C1C(=O)O[C@@H]2OC3(C)CCC4C(C)CCC1C42OO3 (stereo partly specified) | – | 3.46 µM (inactive) | 3.41 µM (inactive) | 11.4 µM (inactive) | 0.449 µM (active) | 2.67 µM (inactive) | 3.58 µM (inactive) | 3.49 µM (inactive) | 11.5 µM (inactive) | 1.42 µM (inactive) | – | 2.94 µM (inactive) | 3.59 µM (inactive) | – | 3.05 µM (inactive) | – | 2.42 µM (inactive) | – | – | –
5 | Cn1c2c(c3ccccc31)CCN(CCCCN1CCN(c3ccccc3)CC1)C2=O | > 100 µM (inactive) | 8.51 µM (inactive) | 31.4 µM (inactive) | > 38.5 µM (inactive) | 7.78 µM (inactive) | 4.16 µM (inactive) | > 76.6 µM (inactive) | 43.6 µM (inactive) | > 41.8 µM (inactive) | 17 µM (inactive) | 10.8 µM (inactive) | 56 µM (inactive) | 44.8 µM (inactive) | 8.93 µM (inactive) | 22.8 µM (inactive) | 45 µM (inactive) | – | > 10 µM (inactive) | 17.5 µM (inactive) | 3.86 µM (inactive)
6 | COC1=C(N)C(=O)c2nc(C)ccc2C1=O | 1.77 µM (inactive) | 1.79 µM (inactive) | 1.83 µM (inactive) | 2.77 µM (inactive) | 2.94 µM (inactive) | 1.98 µM (inactive) | 9.98 µM (inactive) | 0.308 µM (active) | 1.04 µM (active) | 5.21 µM (inactive) | 1.67 µM (inactive) | 2.11 µM (inactive) | 2.03 µM (inactive) | 2.94 µM (inactive) | 1.87 µM (inactive) | 8.2 µM (inactive) | – | – | – | –
7 | CC(=O)OCC1OC(NC(=O)N(CCCl)N=O)C(OC(C)=O)C(OC(C)=O)C1OC(C)=O (stereo unspecified) | – | > 100 µM (inactive) | > 100 µM (inactive) | 54.8 µM (inactive) | > 100 µM (inactive) | > 100 µM (inactive) | > 100 µM (inactive) | > 100 µM (inactive) | 3.86 µM (inactive) | > 100 µM (inactive) | > 100 µM (inactive) | > 80.9 µM (inactive) | 36.1 µM (inactive) | – | > 100 µM (inactive) | – | > 100 µM (inactive) | – | – | –
8 | Cc1cc2oc(-c3ccccc3)c(C)c(=O)c2c2c1OC(C)(C)S2 | > 100 µM (inactive) | 61.2 µM (inactive) | 71.9 µM (inactive) | > 100 µM (inactive) | 8.13 µM (inactive) | 34.2 µM (inactive) | > 100 µM (inactive) | > 100 µM (inactive) | > 100 µM (inactive) | 47 µM (inactive) | 70.3 µM (inactive) | > 100 µM (inactive) | > 100 µM (inactive) | 29.6 µM (inactive) | > 100 µM (inactive) | > 100 µM (inactive) | – | – | – | –
9 | O=C(O)COc1ccc(C(=O)/C(SS/C(C(=O)c2ccc(OCC(=O)O)c(Cl)c2Cl)=C2\C=C(c3ccc(Br)cc3)SS2)=C2/C=C(c3ccc(Br)cc3)SS2)c(Cl)c1Cl | 4.58 µM (inactive) | 3.11 µM (inactive) | 23.8 µM (inactive) | 28 µM (inactive) | 1.55 µM (inactive) | 12.2 µM (inactive) | 4.99 µM (inactive) | 5.45 µM (inactive) | 6.81 µM (inactive) | 4.73 µM (inactive) | – | 2.82 µM (inactive) | 7.5 µM (inactive) | – | 6.73 µM (inactive) | 26.7 µM (inactive) | – | – | 30.3 µM (inactive) | 2.3 µM (inactive)
10 | CC(C)(C)Sc1nnc(SC(C)(C)C)c2c(SC(C)(C)C)nnc(O)c12 | – | 12.4 µM (inactive) | 7.8 µM (inactive) | 12.1 µM (inactive) | 2.14 µM (inactive) | 6.03 µM (inactive) | 8.51 µM (inactive) | 4.37 µM (inactive) | 15.2 µM (inactive) | 2.8 µM (inactive) | 3.39 µM (inactive) | 7.53 µM (inactive) | 11.8 µM (inactive) | 4.14 µM (inactive) | 6.87 µM (inactive) | 23.2 µM (inactive) | – | – | – | –
11 | C/C(=N\NC(=S)N1CCN(C2CCCCCC2)CC1)c1ccccn1 | 0.145 µM (active) | 0.01 µM (active) | 0.01 µM (active) | < 0.0121 µM (active) | 0.01 µM (active) | < 0.0343 µM (active) | 0.01 µM (active) | 0.34 µM (active) | 0.0655 µM (active) | 0.01 µM (active) | 0.212 µM (active) | 0.337 µM (active) | 1.71 µM (inactive) | 0.01 µM (active) | 0.01 µM (active) | 0.74 µM (active) | 0.01 µM (active) | 1.31 µM (inactive) | 0.161 µM (active) | 0.01 µM (active)
12 | CC1=CC2=C(C)C3(CC3)[C@@](C)(O)C(=O)C2=C1 | 0.176 µM (active) | 0.221 µM (active) | 0.189 µM (active) | 0.535 µM (active) | 0.135 µM (active) | 0.227 µM (active) | 0.29 µM (active) | 0.254 µM (active) | 0.231 µM (active) | > 1 µM (active) | 0.149 µM (active) | 0.133 µM (active) | 0.19 µM (active) | > 1 µM (active) | > 1 µM (active) | 0.329 µM (active) | – | – | – | –

From ChEMBL document CHEMBL1201862, “PubChem BioAssay data set” (2004)
